Target: T1, glucocerebrosidase (Gcase) (Homo sapiens, UniProt P04062)
T1 construct: micellar solution containing 10 nM GCase and 100 nM saposin C
T1 sequence (P04062 40-536): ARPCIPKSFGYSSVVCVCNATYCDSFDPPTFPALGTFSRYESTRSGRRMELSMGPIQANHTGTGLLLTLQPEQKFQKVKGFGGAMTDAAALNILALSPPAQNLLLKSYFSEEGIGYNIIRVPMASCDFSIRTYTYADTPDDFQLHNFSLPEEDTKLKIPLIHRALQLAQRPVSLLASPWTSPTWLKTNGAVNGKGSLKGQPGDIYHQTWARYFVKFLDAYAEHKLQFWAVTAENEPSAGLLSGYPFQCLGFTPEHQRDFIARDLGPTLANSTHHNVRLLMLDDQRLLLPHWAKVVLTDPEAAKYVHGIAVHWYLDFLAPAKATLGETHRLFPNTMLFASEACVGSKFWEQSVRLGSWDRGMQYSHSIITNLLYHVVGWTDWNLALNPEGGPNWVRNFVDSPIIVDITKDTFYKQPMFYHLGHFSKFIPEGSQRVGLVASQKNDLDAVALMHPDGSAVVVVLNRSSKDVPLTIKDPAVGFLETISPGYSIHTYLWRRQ
Experiment: Glucocerebrosidase (Gcase) activation assay with 4-methylumbelliferyl-beta-D-glucopyranoside substrate, saposin C and phosphatidylserine/triton micelles, fluorescence readout
Type: biochemical
How it was run: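 10 nM GCase with 100 nM saposin C pre-incubated 30 min with compound in pH 4.7 phosphate/citrate PS/triton micelles, then mixed 1:1 with 2 mM 4-methylumbelliferyl-β-glucoside micellar substrate (stock level). Run 15 min at room temperature, stopped at pH 12.5; fluorescence 365/440 nm. Screened at 1.0 and 0.1 μM; 8-point curves from 5 μM.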

SMILES | Percent Gcase Activation, 0.1 μM Test Compound (test compound at 0.1 μM) | Percent Gcase Activation, 1 μM Test Compound (test compound at 1.0 μM) | Percent Gcase Activation, 0.1 μM Test Compound (0.1 μM test compound) | Percent Gcase Activation, 1 μM Test Compound (1 μM test compound) | other results
Cc1cc(-c2cccc(-c3ncncn3)c2)nc2c(C(=O)NC(C3CC3)C(F)(F)F)cnn12 (centres unmarked) [III-177] | *** (greater than 20% Gcase activation) | +++ (Gcase activation greater than 60%) |  |  | 
Cc1cc(-c2cc(C)n3ncc(C(=O)N[C@H](C4CC4)C(F)(F)F)c3n2)on1 [III-343] |  |  | *** (greater than 20% Gcase activation) | +++ (Gcase activation greater than 60%) | 
Cc1cc(-c2ccc(F)c(C#N)c2)nc2c(C(=O)NC(C)C(F)(F)F)cnn12 (centres unmarked) [III-159] | ** (Gcase activation in the range of 10% up to 20%) | +++ (Gcase activation greater than 60%) |  |  | 
Cc1cc(Cl)nc2c(C(=O)NC(C)(C)C3CC3)cnn12 [III-15] |  |  |  |  | Percent Gcase Activation, 0.1 μM Test Compound (0.1 μM test compound, Table 3A): *** (greater than 20% Gcase activation); Percent Gcase Activation, 1 μM Test Compound (1 μM test compound, Table 3A): +++ (Gcase activation greater than 60%)
Cc1cc(-c2cccc(Cl)n2)nc2c(C(=O)N[C@H](C)C3CC3)cnn12 [III-132] | ** (Gcase activation in the range of 10% up to 20%) | +++ (Gcase activation greater than 60%) |  |  | 
Cc1cc(-c2ccc3ocnc3c2)nc2c(C(=O)NC(C3CC3)C(F)(F)F)cnn12 (centres unmarked) [III-108] | *** (greater than 20% Gcase activation) | +++ (Gcase activation greater than 60%) |  |  | 
Cc1cc(-c2c(F)cccc2C#N)nc2c(C(=O)N[C@@H](C)C(F)(F)F)cnn12 [III-400] |  |  | ** (Gcase activation in the range of 10% up to 20%) | +++ (Gcase activation greater than 60%) | 
Cc1cc(-c2ccc(C#N)o2)nc2c(C(=O)NC(C3CC3)C(F)(F)F)cnn12 (centres unmarked) [III-185] | *** (greater than 20% Gcase activation) | +++ (Gcase activation greater than 60%) |  |  | 
Cc1cc(-c2cncc(F)c2)nc2c(C(=O)N[C@@H](C3CC3)C(F)(F)F)cnn12 [III-127] | *** (greater than 20% Gcase activation) | +++ (Gcase activation greater than 60%) |  |  | 
Cc1cc(-c2ccc(Cl)nc2)nc2c(C(=O)N[C@H](C3CC3)C(F)(F)F)cnn12 [III-117] | *** (greater than 20% Gcase activation) | +++ (Gcase activation greater than 60%) |  |  | 
CCCCO[C@H]1CC[C@H](NC(=O)c2cnn3c(C)cc(-c4cncc(Cl)c4)nc23)CC1 [III-293] |  |  | *** (greater than 20% Gcase activation) | +++ (Gcase activation greater than 60%) | 
Cc1cc(-c2ccccn2)n2ncc(C(=O)NC(C)(C)C3CC3)c2n1 [III-17] |  |  |  |  | Percent Gcase Activation, 0.1 μM Test Compound (0.1 μM test compound, Table 3A): * (less than 10% Gcase activation); Percent Gcase Activation, 1 μM Test Compound (1 μM test compound, Table 3A): + (less than 30% Gcase activation)
Cc1cc(-c2ccc(N3CCOCC3)c(F)c2)nc2c(C(=O)NC(C)C(F)(F)F)cnn12 (centres unmarked) [III-299] |  |  | *** (greater than 20% Gcase activation) | +++ (Gcase activation greater than 60%) | 
Cc1cccc(-c2cc(C)n3ncc(C(=O)N[C@@H](C4CC4)C(F)(F)F)c3n2)n1 [III-382] |  |  | *** (greater than 20% Gcase activation) | +++ (Gcase activation greater than 60%) | 
CNC(=O)c1cccc(-c2cc(C)n3ncc(C(=O)NC(C4CC4)C(F)(F)F)c3n2)c1 (centres unmarked) [III-414] |  |  | * (less than 10% Gcase activation) | +++ (Gcase activation greater than 60%) | 
Cc1cc(-c2cc(C)n3ncc(C(=O)N[C@H](C4CC4)C(F)(F)F)c3n2)sn1 [III-215] | *** (greater than 20% Gcase activation) | +++ (Gcase activation greater than 60%) |  |  | 
Cc1cc(-c2ccc3c(c2)OCO3)nc2c(C(=O)NC(C)C(F)(F)F)cnn12 (centres unmarked) [III-289] |  |  | *** (greater than 20% Gcase activation) | +++ (Gcase activation greater than 60%) | 
CCc1cc(N2CCN(C(C)C)C2=O)nc2c(C(=O)NC(C)C(F)(F)F)cnn12 (centres unmarked) [III-226] | * (less than 10% Gcase activation) | ++ (Gcase activation in the range of 30% up to 60%) |  |  | 
Cc1cc(-c2cncc(Cl)c2)nc2c(C(=O)N[C@@H](C3CC3)C(F)(F)F)cnn12 [III-121] | *** (greater than 20% Gcase activation) | +++ (Gcase activation greater than 60%) |  |  | 

SMILES | Percent Gcase Activation, 0.1 μM Test Compound (test compound at 0.1 μM) | Percent Gcase Activation, 1 μM Test Compound (test compound at 1.0 μM) | Percent Gcase Activation, 0.1 μM Test Compound (0.1 μM test compound) | Percent Gcase Activation, 1 μM Test Compound (1 μM test compound) | other results
Cc1cc(-c2ccon2)nc2c(C(=O)N[C@H](C3CC3)C(F)(F)F)cnn12 [III-240] | *** (greater than 20% Gcase activation) | +++ (Gcase activation greater than 60%) |  |  | 
Cc1cc(-n2ccc(Cl)n2)nc2c(C(=O)NC(C)C(F)(F)F)cnn12 (centres unmarked) [III-170] | ** (Gcase activation in the range of 10% up to 20%) | ++ (Gcase activation in the range of 30% up to 60%) |  |  | 
COc1ccc(F)c(-c2cc(C)n3ncc(C(=O)N[C@@H](C)C(F)(F)F)c3n2)c1 [III-98] | *** (greater than 20% Gcase activation) | +++ (Gcase activation greater than 60%) |  |  | 
Cc1cc(-c2ccc(F)c(C#N)c2)nc2c(C(=O)N[C@@H](C)C3CC3)cnn12 [III-157] | *** (greater than 20% Gcase activation) | +++ (Gcase activation greater than 60%) |  |  | 
Cc1cc(NC2CC2)nc2c(C(=O)NC(C)C(F)(F)F)cnn12 (centres unmarked) [III-165] | ** (Gcase activation in the range of 10% up to 20%) | +++ (Gcase activation greater than 60%) |  |  | 
Cc1cc(-c2cc(C)n3ncc(C(=O)N[C@H](C4CC4)C(F)(F)F)c3n2)no1 [III-341] |  |  | *** (greater than 20% Gcase activation) | +++ (Gcase activation greater than 60%) | 
Cc1cocc1-c1cc(C)n2ncc(C(=O)N[C@H](C)C(F)(F)F)c2n1 [III-336] |  |  | *** (greater than 20% Gcase activation) | +++ (Gcase activation greater than 60%) | 
CO[C@H]1CC[C@@H]([C@@H](C)NC(=O)c2cnn3c(C)cc(C)nc23)CC1 [III-404] |  |  | * (less than 10% Gcase activation) | +++ (Gcase activation greater than 60%) | 
Cc1cc(-c2ccccn2)n2ncc(C(=O)N[C@@H](C)C3CC3)c2n1 [III-25] |  |  |  |  | Percent Gcase Activation, 0.1 μM Test Compound (0.1 μM test compound, Table 3A): * (less than 10% Gcase activation); Percent Gcase Activation, 1 μM Test Compound (1 μM test compound, Table 3A): + (less than 30% Gcase activation)
Cc1cc(-c2cccnc2C#N)nc2c(C(=O)NC(C)(C)C3CC3)cnn12 [III-371] |  |  | * (less than 10% Gcase activation) | +++ (Gcase activation greater than 60%) | 
Cc1cc(-c2ccc3scnc3c2)nc2c(C(=O)N[C@H](C)C3CC3)cnn12 [III-193] | *** (greater than 20% Gcase activation) | +++ (Gcase activation greater than 60%) |  |  | 
Cc1sncc1-c1cc(C)n2ncc(C(=O)N[C@H](C3CC3)C(F)(F)F)c2n1 [III-387] |  |  | *** (greater than 20% Gcase activation) | +++ (Gcase activation greater than 60%) | 
Cc1cc(-c2ccns2)nc2c(C(=O)N[C@H](C3CC3)C(F)(F)F)cnn12 [III-100] | *** (greater than 20% Gcase activation) | +++ (Gcase activation greater than 60%) |  |  | 
Cc1cc(C)n2ncc(C(=O)NC3(C4CC4)CC3)c2n1 [III-12] |  |  |  |  | Percent Gcase Activation, 0.1 μM Test Compound (0.1 μM test compound, Table 3A): * (less than 10% Gcase activation); Percent Gcase Activation, 1 μM Test Compound (1 μM test compound, Table 3A): + (less than 30% Gcase activation)
Cc1cc(-c2cccnc2C(F)(F)F)nc2c(C(=O)N[C@@H](C3CC3)C(F)(F)F)cnn12 [III-356] |  |  | *** (greater than 20% Gcase activation) | +++ (Gcase activation greater than 60%) | 
Cc1cc(-c2cccc(-c3ncon3)c2)nc2c(C(=O)NC(C3CC3)C(F)(F)F)cnn12 (centres unmarked) [III-176] | *** (greater than 20% Gcase activation) | +++ (Gcase activation greater than 60%) |  |  | 
Cc1cc(-c2cccc3c2OCO3)nc2c(C(=O)NC(C3CC3)C(F)(F)F)cnn12 (centres unmarked) [III-183] | *** (greater than 20% Gcase activation) | +++ (Gcase activation greater than 60%) |  |  | 
COCCOc1ccc(-c2cc(C)n3ncc(C(=O)NC(C)C(F)(F)F)c3n2)cc1F (centres unmarked) [III-298] |  |  | *** (greater than 20% Gcase activation) | +++ (Gcase activation greater than 60%) | 
